Results published in patent US11220690B2, “Formulation” (ATLANTIC PHARMACEUTICALS (HOLDINGS) LTD, priority 2017, dated 2022).

Experiments:
TLR9 [1] = target: T1, TLR9 (Homo sapiens, UniProt Q9NR96); experiment: Inhibition of TLR-9 activated by E. coli genomic DNA; format: cell-based; details: E. coli genomic DNA as activator of TLR-9
T1 sequence (Q9NR96 26-1032): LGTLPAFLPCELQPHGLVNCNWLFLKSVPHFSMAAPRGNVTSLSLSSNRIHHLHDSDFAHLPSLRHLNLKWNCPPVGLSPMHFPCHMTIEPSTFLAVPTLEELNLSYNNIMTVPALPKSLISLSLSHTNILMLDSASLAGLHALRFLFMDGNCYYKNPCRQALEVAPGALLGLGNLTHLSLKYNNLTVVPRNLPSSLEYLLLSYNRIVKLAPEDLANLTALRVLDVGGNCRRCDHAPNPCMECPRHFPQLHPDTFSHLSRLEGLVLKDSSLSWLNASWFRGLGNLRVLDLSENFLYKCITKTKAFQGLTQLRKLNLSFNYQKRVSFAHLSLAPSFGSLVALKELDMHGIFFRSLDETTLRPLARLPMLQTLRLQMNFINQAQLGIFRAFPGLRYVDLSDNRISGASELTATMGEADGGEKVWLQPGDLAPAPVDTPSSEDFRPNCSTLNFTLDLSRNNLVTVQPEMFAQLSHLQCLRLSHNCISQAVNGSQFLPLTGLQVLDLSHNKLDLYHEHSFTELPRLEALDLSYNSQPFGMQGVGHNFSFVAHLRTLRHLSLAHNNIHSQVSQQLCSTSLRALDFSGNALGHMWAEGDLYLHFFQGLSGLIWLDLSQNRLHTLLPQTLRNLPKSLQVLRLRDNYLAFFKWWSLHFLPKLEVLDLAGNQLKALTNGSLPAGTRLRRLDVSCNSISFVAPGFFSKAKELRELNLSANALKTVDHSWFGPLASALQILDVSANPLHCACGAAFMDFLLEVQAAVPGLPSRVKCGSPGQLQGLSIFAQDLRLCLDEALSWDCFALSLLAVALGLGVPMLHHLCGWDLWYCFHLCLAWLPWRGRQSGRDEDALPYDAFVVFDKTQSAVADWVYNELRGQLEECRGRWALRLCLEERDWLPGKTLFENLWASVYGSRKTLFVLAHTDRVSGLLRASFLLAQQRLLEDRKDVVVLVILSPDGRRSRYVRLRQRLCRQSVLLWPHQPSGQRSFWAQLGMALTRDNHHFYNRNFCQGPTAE
From the text: While the data of FIG. 4 indicate that SEQ ID NO:1 is more likely to form a homodimer than a heterodimer with ODN2006, additional experiments tested the antagonist activity of SEQ ID NO:1 in the presence of E. coli genomic DNA as the activator.

[2] = Circular Dichroism (CD) spectroscopy, thermal stability of secondary structure; format: physicochemical
From the text: SEQ ID NO:1 was therefore subjected to Circular Dichroism (CD) spectroscopy to gather information about the possible secondary structure. CD of DNA can be utilized to detect all 3 major forms of duplex structure (B, A and Z) and is sensitive to conditions that disrupt the structure such a heating. Of interest was the stability of any secondary structure detected at or above physiologic temperatures. Shown in FIG. 6 is the CD spectra of sample SEQ ID NO:1 in ddH20 at 4 C.
Additional thermal denaturation of the putative duplex was also studied in the presence of Na^+ at concentrations of 50 mM and 150 mM. Sodium fluoride was used as Cl^− ions interfere with the CD spectra in this UV region.
Additional experiments were conducted to test the influence of Mg^++ and polyamines on the stability of the structure.

pigmented C57BL/6N mice = experiment: Murine model of dry eye by scopolamine administration; format: in vivo, Mouse; details: for Corneal fluorescein staining score (mean ± SD): 5 μL in both eyes, one dose per day
From the text: In a model of mice, the application of transdermal scopolamine patches to the mid-tail is used to reduce aqueous tear production and thus mimic lacrimal gland insufficiency. The function of scopolamine is to induce a pharmacologic blockade of cholinergic receptors in the lacrimal gland and therefore to decrease aqueous production. The desiccation is amplified by adding environmental stress Animals are exposed to a low-humidity environment and constant airflow.
• Species: Mouse. • Strain: C57BL/6N (pigmented). • Age: Approximately 6-7 weeks (at the first day of induction). • Number/sex: 55 females (study 40; reserve 15).
Mice were treated with transdermal scopolamine administration (0.5 mg/72 h; Scopoderm TTS®). The transdermal scopolamine patch was wrapped near the tail base of the mouse, secured with cellophane tape. Patches were reapplied every 48 hours.
Mice were randomized into 4 groups of 10 animals. The study was divided into 2 experimental sets with 5 animals of each group represented.
All test items, control items and comparator item were instilled in both eyes (5 μL per administration), using a micropipette.
Tear production and corneal defects were assessed at baseline, on Days 3, 6 and 10 using phenol red thread (PRT) and corneal fluorescence staining (CFS), respectively, for each animal of the 4 groups.
A) Measurement of Aqueous Tear Production PRT Test. • Tear production was measured with the PRT test (Zone-Quick, FCI-Ophthalmics) on both eyes, before administration on Day 3 and at least one hour after the second treatment for the other days of the study. The thread was placed in the lateral cantus of the lateral conjunctival fornix for 30 seconds. The thread wet by tears would turn red, indicated aqueous tear production.
B) Corneal Fluorescein Staining (CFS) • At the different time points the measurement was performed before administration on Day 3 and at least one hour after the second treatment for the other days of the study. The eyes of the animals from all groups were examined by slit-lamp observation using blue light after 0.5% fluorescein eye drop instillation (0.5 μL). Punctuate staining was recorded with the standardized National Eye Institute (NEI) grading system giving a 0-3 score to each of the 5 areas in which the corneas were divided. Results: Animal Behaviour and Body Weights

TLR9 [3] = target: T1, TLR9; experiment: TLR9 activation (agonist) screen, TLR9/NF-kB luciferase reporter HEK 293 cell line; format: cell-based; parameters: host or cells: HEK 293 (TLR9/NF-kB luciferase reporter line); details: up to concentrations as high as 100 uM, 16 h treatment
Description: […] Briefly, the TLR9/NF-kB luciferase reporter HEK 293 cell line (Abeomics, San Diego, Calif.) was plated in 96-well white solid plates at 5×10^4 cells per well for 16 h. […] Luciferase activity was then measured and analyzed.

TLR9 [4] = target: T1, TLR9; experiment: Inhibition of TLR9-mediated NF-kB induction activated by CpG ODN2006, luciferase reporter HEK 293 cell line; format: cell-based; parameters: host or cells: HEK 293 (TLR9/NF-kB luciferase reporter line)
Description: SEQ ID NO:1 was next screened for dose responsive inhibition activity to determine the IC50 against TLR9-mediated NF-kB induction at seven different doses (0.1, 1, 5, 10, 25, 50 and 100 μM) in triplicate. Briefly, the TLR9/NF-kB luciferase reporter HEK 293 cell line was plated in 96-well white solid plates at 5×10^4 cells per well for 16 h. Cells were pretreated with different doses of SEQ ID NO:1 in triplicate for 1 h. Cells were then treated with 20 ug/ml of CpG ODN2006 to activate TLR9. After 16 h, luciferase activity was measured and analyzed.

alicaforsen (GCCCAAGCTGGCATCCGTCA; chemistry not given here; listed as Homo sapiens) [SEQ ID NO:1]
antagonist activity in the presence of E. coli genomic DNA as the activator (TLR9 [1]): remained antagonistic | intensity of the 190 nm peak after cooling back ([2]; 50 and 150 mM sodium, samples cooled back to 20° C. after heating): returned to pre-heated levels | structure retained (intensity of the 190 nm peak) on heating ([2]; both 50 and 150 mM sodium (sodium fluoride), to 40° C.): at least 50% | loss of signal strength of positive CD band at 190 nm ([2]; in ddH20, heating to 80° C.): > 85% | effect of spermine on secondary structure (CD spectra) ([2]; spermine at 5 mM in the presence of 50 mM Na+): completely abolished the secondary structure | Corneal fluorescein staining score (mean ± SD) (pigmented C57BL/6N mice; Day 6, alicaforsen 1 mM): 10.5 ± 2.6 | Corneal fluorescein staining score (mean ± SD) (pigmented C57BL/6N mice; Day 6, alicaforsen 10 mM): 10.8 ± 2.0 | Corneal fluorescein staining score (mean ± SD) (pigmented C57BL/6N mice; Day 10, alicaforsen 1 mM, listed as ALICAFORSEN): 9.3 ± 3.1 | Corneal fluorescein staining score (mean ± SD) (pigmented C57BL/6N mice; Day 10, alicaforsen 1 mM, listed as alicaforsen): lower than the Vehicle group | Corneal fluorescein staining score (mean ± SD) (pigmented C57BL/6N mice; Day 10, alicaforsen 10 mM, listed as ALICAFORSEN): 9.7 ± 2.2 | Corneal fluorescein staining score (mean ± SD) (pigmented C57BL/6N mice; Day 10, alicaforsen 10 mM, listed as alicaforsen): lower than the Vehicle group | clinical tolerability (pigmented C57BL/6N mice; multiple topical administrations, 1 mM and 10 mM): clinically well tolerated | agonist activity (TLR9 activation) (TLR9 [3]): devoid of agonist activity | TLR-9 antagonist activity (TLR9 [4]; ODN2006 as activator): antagonist of TLR-9 | concentrations required for TLR-9 antagonism compared with inhibition of ICAM-1 expression (TLR9 [4]; comparative dose responses, FIG. 3): requires higher concentrations than the inhibition of ICAM-1 expression
